Results: publication PMC12368060 (Communications Biology, 2025)
Square brackets hold non-standard residues; d marks the D form. Peptide text beside a SMILES is read from it. * marks the point of attachment. FITC = O=C1OC2(c3ccc(O)cc3Oc3cc(O)ccc32)c2ccc(NC(=S)*)cc21; pS = N[C@@H](COP(=O)(O)O)C(=O)O; Ahx = NCCCCCC(=O)O

Biological target: GST-LC3B (Homo sapiens, UniProt Q9GZQ8)
Experiment: Surface plasmon resonance
Format: binding
Conditions: read-out: kon (on-rate)

kon | Structure (SMILES)
17800 M⁻¹ s⁻¹ | CC[C@H](C)[C@H](NC(=O)[C@H](CCC(=O)O)NC(=O)[C@@H](NC(=O)[C@H](Cc1ccccc1)NC(=O)[C@H](COP(=O)(O)O)NC(=O)[C@H](CC(=O)O)NC(=O)[C@H](CCC(=O)O)NC(=O)[C@H](CO)NC(=O)[C@H](CO)NC(=O)CNC(=O)[C@H](CO)NC(=O)[C@H](CO)NC(=O)[C@H](CC(N)=O)NC(=O)CCCCCNC(=S)Nc1ccc2c(c1)C(=O)OC21c2ccc(O)cc2Oc2cc(O)ccc21)C(C)C)C(=O)N[C@@H](CCCNC(=N)N)C(=O)N[C@@H](CCSC)C(=O)N[C@@H](C)C(=O)N[C@@H](CCC(=O)O)C(=O)O [pS177] ({FITC-Ahx}-NSSGSSED[pS]FVEIRMAE-OH)
550 M⁻¹ s⁻¹ | CC[C@H](C)[C@H](NC(=O)[C@H](CCC(=O)O)NC(=O)[C@@H](NC(=O)[C@H](Cc1ccccc1)NC(=O)[C@H](CO)NC(=O)[C@H](CC(=O)O)NC(=O)[C@H](CCC(=O)O)NC(=O)[C@H](CO)NC(=O)[C@H](CO)NC(=O)CNC(=O)[C@H](CO)NC(=O)[C@H](CO)NC(=O)[C@H](CC(N)=O)NC(=O)CCCCCNC(=S)Nc1ccc2c(c1)C(=O)OC21c2ccc(O)cc2Oc2cc(O)ccc21)C(C)C)C(=O)N[C@@H](CCCNC(=N)N)C(=O)N[C@@H](CCSC)C(=O)N[C@@H](C)C(=O)N[C@@H](CCC(=O)O)C(=O)O [WT] ({FITC-Ahx}-NSSGSSEDSFVEIRMAE-OH)
